Patent US20250194593A1, “PESTICIDAL COMPOSITIONS COMPRISING PENTANAL AND USES THEREOF” (MIGAL GALILEE RESEARCH INSTITUTE LTD., priority 2022, published 2025)

Assays:
Penicillium expansum [1] = assay: electron microscopy of mycelium and spores treated with pentanal; format: cell-based; conditions: pentanal treated vs untreated
Procedure: FIGS. 2A-2C are micrographs presenting the effect of pentanal vapors (lower panel) on the mycelium (2A), conidia (2B), and spores (2C) of Penicillium expansum, as compared to untreated counterparts (upper panel). White arrows represent damage of Penicillium expansum upon exposure to pentanal vapors. Mycelium and spores of Penicillium expansum treated and untreated with pentanal were analyzed using electronic microscope. Untreated mycelium and the spores of Penicillium expansum developed normally (FIG. 2, upper panel) while the Pentanal treated samples were impaired, the round structure of the mycelium was altered and along the mycelium damaged sites were observed (FIG. 2A). The conjugation sites of the spores in conidiophore were also damaged (FIG. 2B), and ruptures were visible on the spores' surface (FIG. 2C).

[2] = test system: Penicillium expansum and/or Botrytis cinerea; assay: storage shelf-life of inoculated fruit and vegetables exposed to pentanal vapors; format: in vivo; conditions: strawberries
From the text: Furthermore, the inventors tested the storage shelf-life of various inoculated fruit and vegetables species, such as: apples, pears, strawberries, lichi, cucumbers, citrus fruits, grapes under similar storage conditions upon exposure thereof to pentanal vapors. The fruits have been inoculated with Penicillium expansum and/or Botrytis cinerea spores and exposed to pentanal vapors at a concentration ranging between 30 and 100 ppm during the cold storage. […] The exact preservative effective amount of pentanal vapors varies dependent on the specific fruit specie, for example strawberries require higher concentration of pentanal, about 80-100 ppm.

Penicillium expansum [3] = assay: rot development on inoculated pears after cold storage; format: in vivo; conditions: pentanal vapors 18 ppm; 10^3-10^5 spores; 2 months of cold storage (0° C.)
Procedure: (§1) FIGS. 3A-3B are bar graphs representing the development of rots (in mm) on pears that were inoculated with Penicillium expansum (3A) and Botrytis cinera (3B) spores. Pears were inoculated with different concentrations of Penicillium expansum spores: 10^3 spores (A); 10^4 spores (B); 10^5 spores (C). The diameter of rots (in mm) was assessed after 2 months of cold storage (at 0° C.). The graphs represent untreated pears versus pears treated by pentanal vapors (18 ppm).
(§2) The decay was measured after 2 months of cold storage (0° C.).

Botrytis cinerea [4] = assay: as above; format: in vivo; conditions: pentanal vapors 18 ppm; 2 months of cold storage (0° C.)
Procedure: as §1, §2

[5] = test system: pathogen related decay (spoilage) of fruits (pears, strawberries and mandarins); assay: decay of fruits exposed to pentanal and stored; format: in vivo; conditions: 10 to 30 ppm pentanal; stored in a cold room and/or at 20° C.
Procedure: Furthermore, various fruits (e.g. pears, strawberries and mandarins) have been exposed to between 10 and 30 ppm of pentanal (e.g. in a form of vapors, or by contacting thereof with an appropriate amount of any one of the composition of the invention). Upon exposure, the treated fruits have been stored for different time periods (in a cold room and/or at 20° C.). Subsequently, the decay of treated fruits has been examined and compared to untreated fruits.

[6] = test system: Penicillium expansum spores; assay: effect of different volatiles on viability of spores (CFU); format: cell-based; conditions: 0.9, 1.8 or 18 μL/L
Procedure: FIGS. 4A-4B are bar graphs representing antifungal activity of different VOCs. FIG. 4A represents the effect of Butyl acetate (B) Hexyl acetate (H), Isoamyl acetate (I), Trans-2-Hexanal (T), and Pentanal (P) and Control (C) at the concentrations of 1.8 μL/L or 18 μL/L on Penicillium expansum spores (CFU). Different letters represent significant differences between treatments (p<0.05). A-C-1.8 μL/L, a-c-18 μL/L 1.8. FIG. 4B represents the effect of different volatiles Hexyl acetate (H), Trans-2-Hexanal (T), Pentanal (P), Hexanal (He) and Control (C) at the concentrations of 0.9 μL/L, 1.8 μL/L or 18 μL/L on Penicillium expansum spores (CFU). Different letters represent significant differences between treatments (p<0.05). A-C-1.8 μL/L, a-c-18 μL/L 1.8.
The inventors additionally examined the effect of different volatiles on the viability of Penicillium expansum spores. The volatiles tested were: Butyl acetate, Hexyl acetate, Isoamyl acetate, […] and they were compared to Pentanal at two different concentrations (1.8 μL/L or 18 μL/L). Furthermore, the inventors examined lower concentration (0.9 μL/L) for the following VOCs hexanal, trans-hexenal, and hexyl acetate on Penicillium expansum spores (CFU).

[7] = test system: Penicillium expansum spores; assay: spores incubated on PDA plates, then exposed to pentanal vapors for 24 hr; format: cell-based
Procedure: The effect of incubation period (hours) of Penicillium expansum spores on PDA plates followed by exposure to pentanal vapors (1.8 ppm, or 18 ppm) for 24 hr was examined.

Penicillium expansum [8] = assay: Petri dish with PDA inoculated with fungi spores exposed to pentanal vapors; format: cell-based; conditions: pentanal vapors about 18 ppm; vs untreated plates
From the text: (§3) FIGS. 1A-1C are images representing inhibition of various plant pathogens Alternaria alternata (1A), Botrytis cinerea (1B), and Penicillium expansum (1C) by pentanal vapors at a concentration of 18 ppm. The inventors tested anti-fungal efficiency of pentanal vapors by exposing various fruits pathogens (e.g., Alternaria, Botrytis, and Penicillium species) to pentanal vapors at a concentration of about 18 ppm. Fruit (in vivo) or Petri dish with PDA (in vitro) inoculated with fungi spores (10^3-10^6 spores/ml) were exposed to pentanal vapors at concentrations of 10-100 ppm for 24 hr. after which the samples were aired and incubated until the pathogens developed in the untreated samples which served as control. The results of this experiment are represented in FIG. 1.

Alternaria alternata = assay: as above; format: cell-based; conditions: pentanal vapors about 18 ppm; vs untreated plates
From the text: as §3

Botrytis cinerea [9] = assay: as above; format: cell-based; conditions: pentanal vapors about 18 ppm; vs untreated plates
From the text: as §3

[10] = pentanal release rate into the ambient air from compositions; format: physicochemical; conditions: release of 50% of the initial pentanal amount into the ambient air
From the text: The inventors further calculated pentanal release rate into the ambient air from various compositions of the invention and compared the release rate to neat pentanal (liquid), as a negative control. Table 1 presents the time period required for release of 50% of the initial pentanal amount.

Time (min) until 50% release [10]: 5 min
SMILES: CCCCC=O [Pentanal]
damage to mycelium, conidiophore and spores (electron microscope) (Penicillium expansum [1]): physical damage
shelf-life of inoculated fruits and vegetables vs non-treated controls ([2]; pentanal vapors 30 to 100 ppm during cold storage, apples, pears, lichi, cucumbers, citrus fruits, grapes): significantly prolong the shelf-life
preservative effective amount of pentanal vapors [2]: 80-100 ppm
decay development in inoculated pears (Penicillium expansum [3]): significantly delayed decay development
decay development in inoculated pears (Botrytis cinerea [4]): significantly delayed decay development
decay of treated fruits compared to untreated fruits [5]: prevention pathogen related decay (spoilage)
anti-fungal activity (CFU) compared to other VOCs [6]: significantly enhanced anti-fungal activity
fungal colonies 6 days after exposure ([7]; pentanal vapors 1.8 ppm for 24 hr): no fungal colonies were detected
fungal colonies 6 days after exposure ([7]; pentanal vapors 18 ppm for 24 hr): no fungal colonies were detected
fungal growth in petri dish (Penicillium expansum [8]): completely prevented fungal growth
fungal growth in petri dish (Alternaria alternata): completely prevented fungal growth
fungal growth in petri dish (Botrytis cinerea [9]): completely prevented fungal growth
